Columns and labels:
TEL-KIT/N822K-BaF3 = test: Proliferation of TEL-KIT/N822K-BaF3 cells (CCK-8); type: cell-based; conditions: Mus musculus; 72 hours, CCK-8; read-out: GI50 TEL-KIT/N822K-BaF3
Source text: (§1) Compounds as provided herein were further evaluated for their inhibitory effects on proliferation of cancer cells by testing their effects on growth of cancer cells. In this example the following cells were used: primary mouse B cells BaF3 (purchased from ATCC), GIST-T1 cells of the human gastrointestinal stromal tumor cell line (expressing wild-type KIT gene) (purchased from Cosmo Bio Co., Ltd. (Japan)). The present lab further constructed and used the following: mouse Tel-Kit-BaF3 (stably expressing KIT wild-type kinase), mouse Tel-Kit/T670I-BaF3 (stably expressing KIT T670I mutant kinase), mouse Tel-Kit/V559A-BaF3 (stably expressing KIT V559A mutant kinase), mouse Tel-Kit/V559D-BaF3 (stably expressing KIT V559D mutant kinase), mouse Tel-Kit/V559G-BaF3 (stably expressing KIT V559G mutant kinase), mouse Tel-Kit/V560D-BaF3 (stably expressing KIT V560D mutant kinase), mouse Tel-Kit/L576P-BaF3 (stably expressing KIT L576P mutant kinase), mouse Tel-Kit/V654A-BaF3 (stably expressing KIT V654A mutant kinase), mouse Tel-Kit/V654A/V559D-BaF3 (stably expressing KIT V654A V559D mutant kinase), mouse Tel-Kit/T670E-BaF3 (stably expressing KIT T670E mutant kinase), mouse Tel-Kit/T670I/V559D-BaF3 (stably expressing KIT T670I V559D mutant kinase), mouse Tel-Kit/S709F-BaF3 (stably expressing KIT S709F mutant kinase), mouse Tel-Kit/D816E-BaF3 (stably expressing KIT D816E mutant kinase), mouse Tel-Kit/D816H-BaF3 (stably expressing KIT D816H mutant kinase), mouse Tel-Kit/D820E-BaF3 (stably expressing KIT D820E mutant kinase), mouse Tel-Kit/D820G-BaF3 (stably expressing KIT D820G mutant kinase), mouse Tel-Kit/D820Y-BaF3 (stably expressing KIT D820Y mutant kinase), mouse Tel-Kit/N822K-BaF3 (stably expressing KIT N822K mutant kinase), mouse Tel-Kit/Y823D-BaF3 (stably expressing KIT Y823D mutant kinase), mouse Tel-Kit/A829P-BaF3 (stably expressing KIT A829P mutant kinase), GIST-T1-T670I cells of the human gastrointestinal stromal tumor cell line (expressing KIT-T670I mutant gene). The above cell lines were constructed by: amplifying respectively the sequences of human KIT and various mutant kinase regions of KIT via PCR, inserting the fragments respectively into MSCV-Puro vectors having a N-terminal TEL fragment and/or a NPM fragment and/or a TPR fragment (purchased from Clontech), transfecting mouse BaF3 cells with the vectors by means of retrovirus to obtain stably transfected cells, removing the growth factor IL-3, and thereby eventually obtaining cell lines that depend on the transferred protein KIT or various mutants of KIT. […]

TEL-KIT/T670E-BaF3 = test: Proliferation of TEL-KIT/T670E-BaF3 cells (CCK-8); type: cell-based; conditions: Mus musculus; 72 hours, CCK-8; read-out: GI50 TEL-KIT/T670E-BaF3
Source text: as §1

TEL-KIT/V654A/V559D-BaF3 = test: Proliferation of TEL-KIT/V654A/V559D-BaF3 cells (CCK-8); type: cell-based; conditions: Mus musculus; 72 hours, CCK-8; read-out: GI50 TEL-KIT/V654A/V559D-BaF3
Source text: as §1

TEL-KIT/V559D-BaF3 = test: Proliferation of TEL-KIT/V559D-BaF3 cells (CCK-8); type: cell-based; conditions: Mus musculus; 72 hours, CCK-8; read-out: GI50 TEL-KIT/V559D-BaF3
Source text: as §1

GIST-T1/T670I = test: Proliferation of GIST-T1/T670I cells (CCK-8); type: cell-based; conditions: Homo sapiens, GISTT1; 72 hours, CCK-8; read-out: GI50 GIST-T1/T670I
Source text: as §1, with “gene).” for “gene). The above cell lines were constructed by: amplifying respectively the sequences of human KIT and various mutant kinase regions of KIT via PCR, inserting the fragments respectively into MSCV-Puro vectors having a N-terminal TEL fragment and/or a NPM fragment and/or a TPR fragment (purchased from Clontech), transfecting mouse BaF3 cells with the vectors by means of retrovirus to obtain stably transfected cells, removing the growth factor IL-3, and thereby eventually obtaining cell lines that depend on the transferred protein KIT or various mutants of KIT.”
(§2) The cells after incubation were detected using CCK-8 (purchased from MedChem Express, Shanghai, China) cell viability assay kit (CCK-8 may be reduced by dehydrogenase in living cells to a highly water-soluble yellow formazan product, and the amount of the resultant formazan is proportional to the number of living cells), the number of living cells were quantified with a microplate reader, and GI50 of the compounds and the control compounds were calculated (the results shown in Table 2 and Table 3).

TEL-KIT/V559G-BaF3 = test: Proliferation of TEL-KIT/V559G-BaF3 cells (CCK-8); type: cell-based; conditions: Mus musculus; 72 hours, CCK-8; read-out: GI50 TEL-KIT/V559G-BaF3
Source text: as §1

TEL-KIT/S709F-BaF3 = test: Proliferation of TEL-KIT/S709F-BaF3 cells (CCK-8); type: cell-based; conditions: Mus musculus; 72 hours, CCK-8; read-out: GI50 TEL-KIT/S709F-BaF3
Source text: as §1

TEL-KIT/V654A-BaF3 = test: Proliferation of TEL-KIT/V654A-BaF3 cells (CCK-8); type: cell-based; conditions: Mus musculus; 72 hours, CCK-8; read-out: GI50 TEL-KIT/V654A-BaF3
Source text: as §1

TEL-KIT/T670I-BaF3 = test: Proliferation of TEL-KIT/T670I-BaF3 cells (CCK-8); type: cell-based, mouse; conditions: Mus musculus; 72 hours, CCK-8; read-out: GI50 TEL-KIT/T670I-BaF3
Source text: Compounds as provided herein were further evaluated for their inhibitory effects on proliferation of cancer cells by testing their effects on growth of cancer cells. In this example the following cells were used: primary mouse B cells BaF3 (purchased from ATCC), GIST-T1 cells of the human gastrointestinal stromal tumor cell line (expressing wild-type KIT gene) (purchased from Cosmo Bio Co., Ltd. (Japan)). The present lab further constructed and used the following: mouse Tel-Kit-BaF3 (stably expressing KIT wild-type kinase), mouse Tel-Kit/T670I-BaF3 (stably expressing KIT T670I mutant kinase), mouse Tel-Kit/V559A-BaF3 (stably expressing KIT V559A mutant kinase), mouse Tel-Kit/V559D-BaF3 (stably expressing KIT V559D mutant kinase), mouse Tel-Kit/V559G-BaF3 (stably expressing KIT V559G mutant kinase), mouse Tel-Kit/V560D-BaF3 (stably expressing KIT V560D mutant kinase), mouse Tel-Kit/L576P-BaF3 (stably expressing KIT L576P mutant kinase), mouse Tel-Kit/V654A-BaF3 (stably expressing KIT V654A mutant kinase), mouse Tel-Kit/V654A/V559D-BaF3 (stably expressing KIT V654A V559D mutant kinase), mouse Tel-Kit/T670E-BaF3 (stably expressing KIT T670E mutant kinase), mouse Tel-Kit/T670I/V559D-BaF3 (stably expressing KIT T670I V559D mutant kinase), mouse Tel-Kit/S709F-BaF3 (stably expressing KIT S709F mutant kinase), mouse Tel-Kit/D816E-BaF3 (stably expressing KIT D816E mutant kinase), mouse Tel-Kit/D816H-BaF3 (stably expressing KIT D816H mutant kinase), mouse Tel-Kit/D820E-BaF3 (stably expressing KIT D820E mutant kinase), mouse Tel-Kit/D820G-BaF3 (stably expressing KIT D820G mutant kinase), mouse Tel-Kit/D820Y-BaF3 (stably expressing KIT D820Y mutant kinase), mouse Tel-Kit/N822K-BaF3 (stably expressing KIT N822K mutant kinase), mouse Tel-Kit/Y823D-BaF3 (stably expressing KIT Y823D mutant kinase), mouse Tel-Kit/A829P-BaF3 (stably expressing KIT A829P mutant kinase), GIST-T1-T670I cells of the human gastrointestinal stromal tumor cell line (expressing KIT-T670I mutant gene). The above cell lines were constructed by: amplifying respectively the sequences of human KIT and various mutant kinase regions of KIT via PCR, inserting the fragments respectively into MSCV-Puro vectors having a N-terminal TEL fragment and/or a NPM fragment and/or a TPR fragment (purchased from Clontech), transfecting mouse BaF3 cells with the vectors by means of retrovirus to obtain stably transfected cells, removing the growth factor IL-3, and thereby eventually obtaining cell lines that depend on the transferred protein KIT or various mutants of KIT. The GIST-T1-T670I (expressing C-KIT-T670I mutant gene) cell line was constructed by our laboratory as follows: designing sgRNA that targeted a region around T670 of the KIT gene with CRISPR Design Tool (website: crispr.mit.edu, Zhang Feng Lab), cloning it into pSpCas9(BB)-2A-Puro vector; co-transfecting cells with the resultant vector and a single-stranded oligonucleotide having T670I site mutation that is near to T670, subjecting the resultant to antibiotics screening, followed by dilution, and monocellular culture in a 96-well plate; validating the site T670 of the cells by sequence detection via Sanger sequencing.

TEL-KIT/D820E-BaF3 = test: Proliferation of TEL-KIT/D820E-BaF3 cells (CCK-8); type: cell-based; conditions: Mus musculus; 72 hours, CCK-8; read-out: GI50 TEL-KIT/D820E-BaF3
Source text: as §1

TEL-KIT/Y823D-BaF3 = test: Proliferation of TEL-KIT/Y823D-BaF3 cells (CCK-8); type: cell-based; conditions: Mus musculus; 72 hours, CCK-8; read-out: GI50 TEL-KIT/Y823D-BaF3
Source text: as §1

TEL-KIT/T670I/V559D-BaF3 = test: Proliferation of TEL-KIT/T670I/V559D-BaF3 cells (CCK-8); type: cell-based; conditions: Mus musculus; 72 hours, CCK-8; read-out: GI50 TEL-KIT/T670I/V559D-BaF3
Source text: as §1

TEL-KIT/D816H-BaF3 = test: Proliferation of TEL-KIT/D816H-BaF3 cells (CCK-8); type: cell-based; conditions: Mus musculus; 72 hours, CCK-8; read-out: GI50 TEL-KIT/D816H-BaF3
Source text: as §1

TEL-KIT/V559A-BaF3 = test: Proliferation of TEL-KIT/V559A-BaF3 cells (CCK-8); type: cell-based; conditions: Mus musculus; 72 hours, CCK-8; read-out: GI50 TEL-KIT/V559A-BaF3
Source text: as §1

TEL-KIT/A829P-BaF3 = test: Proliferation of TEL-KIT/A829P-BaF3 cells (CCK-8); type: cell-based; conditions: Mus musculus; 72 hours, CCK-8; read-out: GI50 TEL-KIT/A829P-BaF3
Source text: as §1

GIST-T1 = test: Proliferation of GIST-T1 cells (CCK-8); type: cell-based; conditions: Homo sapiens, GISTT1; 72 hours, CCK-8; read-out: GI50 GIST-T1
Source text: as §1, with “gene).” for “gene). The above cell lines were constructed by: amplifying respectively the sequences of human KIT and various mutant kinase regions of KIT via PCR, inserting the fragments respectively into MSCV-Puro vectors having a N-terminal TEL fragment and/or a NPM fragment and/or a TPR fragment (purchased from Clontech), transfecting mouse BaF3 cells with the vectors by means of retrovirus to obtain stably transfected cells, removing the growth factor IL-3, and thereby eventually obtaining cell lines that depend on the transferred protein KIT or various mutants of KIT.”
as §2

TEL-KIT/D816E-BaF3 = test: Proliferation of TEL-KIT/D816E-BaF3 cells (CCK-8); type: cell-based; conditions: Mus musculus; 72 hours, CCK-8; read-out: GI50 TEL-KIT/D816E-BaF3
Source text: as §1

TEL-KIT/D820G-BaF3 = test: Proliferation of TEL-KIT/D820G-BaF3 cells (CCK-8); type: cell-based; conditions: Mus musculus; 72 hours, CCK-8; read-out: GI50 TEL-KIT/D820G-BaF3
Source text: as §1

TEL-KIT/V560D-BaF3 = test: Proliferation of TEL-KIT/V560D-BaF3 cells (CCK-8); type: cell-based; conditions: Mus musculus; 72 hours, CCK-8; read-out: GI50 TEL-KIT/V560D-BaF3
Source text: as §1

TEL-KIT/D820Y-BaF3 = test: Proliferation of TEL-KIT/D820Y-BaF3 cells (CCK-8); type: cell-based; conditions: Mus musculus; 72 hours, CCK-8; read-out: GI50 TEL-KIT/D820Y-BaF3
Source text: as §1

Cc1ccc(NC(=O)c2ccc(CN3CCN(C)CC3)cc2)cc1Nc1nccc(-c2cccnc2)n1 [Imatinib, reference compound]
GI50 (TEL-KIT/N822K-BaF3): 1470 nM | GI50 (TEL-KIT/T670E-BaF3): 4080 nM | GI50 (TEL-KIT/V654A/V559D-BaF3): 608 nM | GI50 (TEL-KIT/V559D-BaF3): 10 nM | GI50 (GIST-T1/T670I): > 10000 nM | GI50 (TEL-KIT/V559G-BaF3): 8 nM | GI50 (TEL-KIT/S709F-BaF3): 115 nM | GI50 (TEL-KIT/V654A-BaF3): 1410 nM | GI50 (TEL-KIT/T670I-BaF3): > 10000 nM | GI50 (TEL-KIT/D820E-BaF3): 35 nM | GI50 (TEL-KIT/Y823D-BaF3): 5870 nM | GI50 (TEL-KIT/T670I/V559D-BaF3): > 10000 nM | GI50 (TEL-KIT/D816H-BaF3): 651 nM | GI50 (TEL-KIT/V559A-BaF3): 905 nM | GI50 (TEL-KIT/A829P-BaF3): 580 nM | GI50 (GIST-T1): 15 nM | GI50 (TEL-KIT/D816E-BaF3): 174 nM | GI50 (TEL-KIT/D820G-BaF3): 337 nM | GI50 (TEL-KIT/V560D-BaF3): 3 nM | GI50 (TEL-KIT/D820Y-BaF3): 435 nM

Source: patent US12404244B2, “Pan-KIT kinase inhibitor having quinoline structure and application thereof” (Tarapeutics Science Inc., priority 2018, dated 2025)
